The values that follow come from patent US20220133687A1, “METHODS OF TREATING AND PREVENTING NEURODEGENERATIVE DISEASES WITH HGF ACTIVATING COMPOUNDS” (Synaptogenix, Inc., priority 2020, published 2022).

Like-named read-outs stand apart in the source and are kept apart here.

The test system of one test is NCI 60 cell line screen. Conditions: cited from earlier work.
The next test has as its system PKC-ε. As to the kind of experiment: Mouse dosing study: brain PKC-ε downregulation. The format is in vivo. Conditions: mice, 25 μg/m^2 three consecutive weekly doses vs lower doses. The source says: (§1) The following metrics may be used to evaluate dosing regimens: induction of brain postsynaptic anchoring protein PSD-95, upregulation of BDNF levels in brain, upregulation of HGF levels in brain, minimal downregulation of PKC-c levels, and elevation of brain and plasma concentrations of bryostatin or other HGF activating compound. Groups of 2-3 mice may be formed and housed in an approved research animal facility. Water may be given ad libitum. A first study involves three groups of mice with animals in each group dosed weekly for 1, 2, 3, or 6 consecutive weeks. Each group has its own control group containing the same number of mice. For example, mice in the first, second and third groups may receive an intravenous (i.v.) injection of 10 μg/m^2, 15 μg/m^2, and 25 μg/m^2 dose of bryostatin or other HGF activating compound respectively. For each dose, mice in that group may receive a single injection of bryostatin or other HGF activating compound weekly for a predetermined number of consecutive weeks. Following dosing, mice are sacrificed and the blood and brain of each animal is collected for further analysis.
A similar observation can be made concerning the levels of the synaptogenesis marker PSD-95. […] Continued weekly dosing at 10 μg/m^2 for another three consecutive weeks (total of 6 consecutive weeks) may result in downregulation. […]

In a further test the test system is BDNF. Kind of test: Mouse dosing study: brain BDNF levels. Conditions: mice. The format is in vivo.
Excerpt: as §1
At a dose of 25 μg/m^2, the levels of brain BDNF may increase with each successive week of dosing, that is, brain BDNF levels may be greatest after three consecutive weeks of dosing. […]

The next test deals with PSD-95. Kind of test: Mouse dosing study: PSD-95 levels. Conditions: mice, 25 μg/m^2 i.v. once per week, after three weeks. The format is in vivo.
Excerpt: as §1
A similar observation can be made concerning the levels of the synaptogenesis marker PSD-95. […] Continued weekly dosing at 10 μg/m^2 for another three consecutive weeks (total of 6 consecutive weeks) may result in downregulation.

In test [1] the target is T1, PKC.
T1 construct: rows headed: Ki for PKC
Conditions: competition with [3H] phorbol dibutyrate; cited from earlier work.

Another test concerns the target protein kinase C. Conditions: (−)-enantiomer; read-out: potency EC50; cited from earlier work.
Test [2] relates to squamous cell carcinoma and melanoma. Conditions: used topically; cited from earlier work.
In test [3] the test system is PKC. Conditions: cited from earlier work.

For `CC1=CC[C@H](C)C(C)(C)[C@@H]1/C=C/C(C)=C/CC[C@@]1(CO)[C@H](CCCO)/C(=C(/C)C=O)CC[C@]1(C)O` [Iripallidal], in the test with NCI 60 cell line screen, the “GI50 (concentration required to inhibit growth by 50%)” value was “micromolar to nanomolar range”.
On to `CCC/C=C/C=C/C(=O)O[C@H]1/C(=C/C(=O)OC)C[C@H]2C[C@H]([C@@H](C)O)OC(=O)C[C@H](O)C[C@@H]3C[C@H](OC(C)=O)C(C)(C)[C@](O)(C[C@@H]4C/C(=C/C(=O)OC)C[C@H](/C=C/C(C)(C)[C@]1(O)O2)O4)O3` [Bryostatin-1], for which the “PKC-ε downregulation in brain” value in the test with PKC-ε is listed as “may not produce more PKC-c downregulation”. The “levels of brain BDNF” value with BDNF (15 μg/m^2 weekly for three consecutive weeks) is on record as “some increase”; in the test on BDNF (25 μg/m^2 weekly), “maximum increase”. In addition, the “amounts of PSD-95 in brain and blood samples” value in the test with PSD-95 is given as “higher amounts of PSD-95”.
Regarding `CC1=C[C@]23C(=O)[C@@H](C=C(COC(=O)c4ccccc4)[C@@H](O)[C@]2(O)[C@H]1OC(=O)c1ccccc1)[C@H]1[C@@H](C[C@H]3C)C1(C)C` [Ingenol 3,20-dibenzoate], the Ki at PKC [1] was 240 nM.
A word on the EC50: it is the concentration needed to bring the measured effect to its halfway point. As to `CCCCCCCCc1ccc2c3c(c[nH]c13)C[C@@H](CO)NC(=O)[C@H](C(C)C)N2C` [Octylindolactam V], the EC50 at protein kinase C is 29 nM.
`C/C=C(/C)C(=O)O[C@H]1C(C)=C[C@]23C(=O)[C@@H](C=C(CO)[C@@H](O)[C@]12O)[C@H]1[C@@H](C[C@H]3C)C1(C)C` [Ingenol-3-angelate]: in test [2], the antitumor activity entry is on record as “exhibits antitumor activity”.
`CCCCCCCC(=O)O[C@H]1/C(=C/C(=O)OC)C[C@H]2C[C@H](CO)OC(=O)C[C@H](O)C[C@@H]3CCC[C@H](C[C@@H]4CCO[C@H](/C=C/C(C)(C)[C@]1(O)O2)O4)O3` [Analog 1]: the “affinity for PKC (in words)” value in the test on PKC [3] is “highest affinity for PKC”. The Ki at PKC [3] (read-out: PKC Affin) was 0.25 nM.
